From a melting point compilation (Tetko et al.; mined from patent text by program, amines drawn as free bases though some values may be those of a salt) come the findings set out here.

A word on the melting point: it is the temperature of the solid-liquid transition.

Molecules are shown by their SMILES.

`COc1cc2ncnc(N3CCN(C(=O)NCc4ccc(Br)cc4)CC3)c2cc1OC` yielded a melting point of 211 to 212 °C.

For the molecule `CCOC(=O)c1cn(-c2cccnc2)nc1N`, the melting point was in the range of 140 to 141 °C.

As to `COc1cc(C(=O)Nc2ccc3c(c2)CN(C)CC3)cc(OC)c1OC`, the melting point turned out to be 158 °C.

With `CCc1c(-c2ccc(OC)cc2)c2c(C(=O)N(C)CCN(C)C)c(C(=O)O)c3cc(OC)cc1n32`, the melting point was in the range of 221 to 223 °C.

Regarding `N#Cc1nn(-c2c(Cl)cc(-c3ccc(C(F)(F)F)cc3)cc2Cl)c(N)c1SC(F)(F)F`, the melting point was in the range of 181 to 184 °C.

`Cc1ccc(-c2nc3cc(N=C=S)ccc3o2)o1` registered a melting point of 110 to 121 °C.

The molecule `CC(C)CNC(=O)c1ccc(-c2ccc3nnn(Cc4ccc5ncccc5c4)c3n2)cc1F` gave a melting point of 158 to 160 °C.

For the molecule `Oc1ccc2c(c1)C1CNCC(C2)C1` (stereo not given), the melting point fell in the range of 215 to 217 °C.

For `CCOC(=O)CNc1nc(Cl)ccc1NC(=O)c1ccc(Cl)cc1`, the melting point lay in the range of 157 to 158 °C.

In turn, `CC(C)(C)OC(=O)NC(COCc1ccccc1)c1nc2c(C(F)(F)F)cccc2c(=O)o1` (stereo not given) displayed a melting point of 98 °C.

Regarding `COc1cc(CN2C(=O)C3(COc4cc5c(cc43)OCCO5)c3ccccc32)cc(OC)c1` (stereo not given), the melting point fell in the range of 192 to 195 °C.

Molecule `CC=CCn1c(C)c(C)c2cnnc(SCc3ccc(F)cc3F)c21` returned a melting point of 122 to 127 °C.

`Cc1cc(C)cc(NC(=O)Cc2ccc(OC3(C(=O)O)CCOC3C)cc2)c1` (racemic) had a melting point of 164 to 167 °C.

As for `O=C1CCC(c2ccc(OCCBr)cc2)CC1`, the melting point fell in the range of 91 to 92 °C.

`CC(C)C(=O)N[C@@H](CSC(=O)C(C)C)C(=O)NCCSC(=O)c1ccccc1` displayed a melting point of 141 to 143 °C.

Molecule `CCOC(=O)c1nnc(Cc2c(F)cccc2F)n1C` returned a melting point of 127 to 128 °C.

As to `C=CCN(CC=C)c1nc(NCC(=O)OC)n2oc(=O)nc2n1`, the melting point lay in the range of 173 to 174 °C.

In turn, `CCCCNc1cc(C(=O)O)cc(S(C)=O)c1Cl` (stereo not given) yielded a melting point of 158 °C.

The molecule `Cn1nc(NC(=O)Nc2ccccc2)nc1NCCCOc1cccc(CN2CCCCC2)c1` yielded a melting point of 137 to 139 °C.

`CNc1cc(C(O)CS(C)(=O)=O)cc(N(C)C(C)=O)c1C` (stereo not given) showed a melting point of 191 to 192 °C.

On to `N#Cc1cc2c(c(-c3ccccc3Cl)c1)OC(CN)C2` (stereo not given), for which the melting point is 173 to 175 °C.

With `COC(=O)c1ccc(OCCNC(=O)OCc2ccccc2)cc1Cl`, the melting point lay in the range of 88 to 90 °C.

Regarding `COc1ccc(CN2C(=O)c3c(-c4ccccc4Cl)cc4c(c3C2=O)c2cc(OC)ccc2n4CC(O)CO)c(OC)c1` (stereo not given), the melting point is 151 to 156 °C.

The molecule `N#Cc1ccc(CNC(=O)c2cccc(C#CCn3ccnn3)c2)cc1` yielded a melting point of 145 to 147 °C.

With `CC(=O)c1ccc2c(c1)Sc1ccccc1O2`, the melting point came out at 112 °C.

As for `CNC(=O)CNc1c(C)cccc1C`, the melting point was 52 to 54 °C.

On to `CC1(C)OC[C@@H](CNc2ccc3cc(OCC4CC4)ccc3c2)O1`, for which the melting point was 108 to 109 °C.

As to `O=C(Nc1ccc(F)cc1)c1ccc([N+](=O)[O-])cc1`, the melting point was in the range of 143 to 146 °C.

In the case of `OC(c1ccncc1)c1c[nH]c2ccc(F)cc12` (stereo not given), the melting point was 171 to 173 °C.

Take `CCCCc1ncc(CC(=O)NC(CCc2ccccc2)C(=O)O)n1Cc1ccccc1Cl` (racemic): the melting point lay in the range of 119 to 120 °C.

`CON=C(c1ccccc1O)n1ccnc1`: the melting point came out at 104 °C.

In turn, `CCOC(=O)c1nc(N)sc1C(=O)CC` displayed a melting point of 134 to 135 °C.

The molecule `O=C(Nc1ccc2cc(CN3CCCCC3)ccc2c1)c1ccc(-c2ccc(F)cc2)nc1` returned a melting point of 218 to 219 °C.

On to `c1ccc(-c2ccn3cnnc3n2)cc1`, for which the melting point came to 192 °C.

In turn, `CN1CCc2cc([N+](=O)[O-])c(O)cc2C(c2cccc3c2OCC3)C1` (single isomer, unassigned; (+)) yielded a melting point of 122 to 123 °C.

Regarding `CCCOc1ccc(S(C)(=O)=O)cc1-c1nc(OC)c2[nH]nc(CC)c2n1`, the melting point lay within 137 to 139 °C.

Molecule `CCOC1=NS(=O)(=O)N=C1c1ccccc1` showed a melting point of 204 to 206 °C.

In the case of `CN(COC(=O)Cc1ccccc1)C(=O)OC(C)(C)C`, the melting point lay in the range of 96 to 98 °C.

As to `CN(C)CC(c1ccccc1)c1nnc2n1-c1ccc(I)cc1C(c1ccccc1)=NC2` (stereo not given), the melting point was 192 to 194 °C.

As for `OC1CN(Cc2nc(-c3ccc4c(c3)Nc3ccccc3S4)cs2)C1`, the melting point was 240 to 242 °C.

Molecule `COC(=O)c1cnc(N)c([N+](=O)[O-])c1` displayed a melting point of 195 to 196 °C.

For `CS(=O)(=O)N(c1ccc([N+](=O)[O-])cn1)S(C)(=O)=O`, the melting point fell in the range of 175 to 177 °C.

As to `CC(C)(C)OC(=O)NC1Cc2cccc3[nH]c(=O)n(c23)C1` (stereo not given), the melting point was in the range of 235 to 236 °C.

For `CCOc1nc(OCC)nc(-n2nc(SC)nc2N)n1`, the melting point was 201 °C.

`CC1(C)COC(=S)N(Cc2ccccc2NS(=O)(=O)C(F)(F)F)C1`: the melting point stood at 130 °C.

Molecule `O=c1ccoc2cccc(OCCCN3CCN(c4ccccc4)CC3)c12` gave a melting point of 106 to 112 °C.

Regarding `CC(C)(C)c1cc(C(=O)c2ncc[nH]2)cc(C(C)(C)C)c1O`, the melting point was 286 to 288 °C.

On to `O=C(C=Cc1cc(O)c(O)c(C(F)(F)F)c1)c1ccccc1`, for which the melting point was 196 to 201 °C.

Molecule `COC(=O)c1ccc(OCCCN2CCC(C(O)(c3ccc(F)cc3)c3ccc(F)cc3)CC2)c(OC)c1` showed a melting point of 131 to 132 °C.

`O=C(Nc1cccc(CN2C(=O)[C@H]3CCC[C@H]3Nc3ccccc32)c1)OCc1ccccc1` (relative stereo) came in with a melting point of 179 to 180 °C.

`Cn1cnc2c(N)cc(Br)cc21` registered a melting point of 170 °C.

With `COC(=O)C1OC(OC(=N)C(Cl)(Cl)Cl)C(OC(=O)C(C)C)C(OC(=O)C(C)C)C1OC(=O)C(C)C` (stereo not given), the melting point came to 108 °C.

Regarding `COc1cc(COc2nn(-c3ccccc3)cc2/C=C/c2cncn2C)ccc1OCc1nc(-c2ccco2)oc1C`, the melting point was 144 to 145 °C.

`Cc1ccc(SCc2ncon2)cc1` displayed a melting point of 53 °C.

For `COc1ccc(-c2nc(CNC(C)=O)sc2-c2ccc(OC)cc2)cc1`, the melting point fell in the range of 138 to 141 °C.

Molecule `O=[N+]([O-])c1c(Cl)cccc1NCCO` displayed a melting point of 78 °C.

Regarding `COc1ccc(C(CC(=O)O)c2ccc(OC)cc2)cc1`, the melting point was 132 to 134 °C.

Take `CC(C)c1nc(C(C)(C)C)cc(-c2ccc(F)cc2)c1C=CI`: the melting point lay in the range of 78 to 80 °C.

Molecule `CC(C)c1nn2ccccc2c1S(=O)(=O)c1ccc(O)cc1` gave a melting point of 146 °C.

`O=C(Nc1c(C(O)(C(F)(F)F)C(F)(F)F)ccc2ccccc12)c1ccccc1` registered a melting point of 190 to 192 °C.

On to `COc1nc(C(F)(F)F)cc(=O)n1-c1cc(C(=O)N(C)OC)c(Cl)cc1F`, for which the melting point came out at 119 °C.

The molecule `CCOC(=O)CNC(=O)Oc1c(Cl)cc(Cl)c2cccnc12` had a melting point of 120 °C.

In the case of `CC(C)(C)c1csc(NC(=O)Nc2ccc(N3CCN(C(=O)Nc4ccc(OCCO)cc4C(F)(F)F)CC3)cc2)n1`, the melting point lay in the range of 130 to 132 °C.

As to `CCCNC(=S)Nc1nc(OCc2cccc(C#N)c2)ncc1F`, the melting point is 163 to 165 °C.

For `O=C1Nc2c(C(F)(F)F)cccc2C1(O)c1cc(Cl)ccc1O` (stereo not given), the melting point lay in the range of 205 to 207 °C.

`NC(=O)c1nnn(Cc2ccc(Cl)c(C(=O)c3ccc(Cl)cc3)c2)c1N` displayed a melting point of 189 to 192 °C.

`CC(C)n1nc(CS(C)=O)cc1O` (stereo not given) registered a melting point of 69 °C.

The molecule `OC1CSC(Oc2ccc(-c3ccnc(F)c3)nc2Cl)C(O)C1O` (stereo not given) returned a melting point of 195 °C.

For the molecule `CCCCC12COC(c3ccc(Br)cc3)(OC1)SC2`, the melting point lay in the range of 110 to 112 °C.

`Nc1nccc(-c2c[nH]c3nccc(OCc4ccccc4)c23)n1` yielded a melting point of over 210 °C.

`CC(C)CNC(=O)COc1ccn2nc(-c3ccccc3)c(-c3ccc(=O)n(C(C)C)n3)c2c1` displayed a melting point of 168 °C.

As for `O=C(NC12CC3CC(CC(C3)C1)C2)c1cccc2c1OCCO2`, the melting point is 137 °C.

As for `CCN1CCCC1CNC(=O)c1nc(Cl)c(OC)nc1OC` (stereo not given), the melting point is 100 to 101 °C.

As to `Brc1cc(-c2ccccc2)cc(-c2ccccc2)c1`, the melting point worked out at 109 °C.

`COc1cc(Cl)cc(C)c1Nc1nc2c(Cl)ccc(C(O)(C(C)(C)C)C(C)(C)C)c2n1C` had a melting point of 246 to 248 °C.

Take `Cc1ccc(Sc2cncc3sc(C=NOCC(N)=O)cc23)cc1`: the melting point lay within 152 to 156 °C.

`OCc1c(C2CC2)nn2ccc3c(c12)CCO3` registered a melting point of 139 to 140 °C.

The molecule `O=C1Nc2ccccc2Sc2ncccc21` returned a melting point of 260 to 261 °C.

In turn, `O=C1N(c2ccccc2)c2ccccc2C1(Cc1ccccn1)Cc1ccccn1` came in with a melting point of 107 to 111 °C.

Regarding `C[C@H]1C=CC(S(=O)(=O)c2ccccc2)=C[C@H](C)[C@H]1O[Si](C)(C)C(C)(C)C`, the melting point fell in the range of 81.6 to 83.6 °C.

For `CCC[C@H](NC(=O)CNC)C(=O)N[C@@H](CCCNC(=N)N)C(=O)N[C@@H](C)P(=O)(O)O`, the melting point was determined as 200 °C.

Take `CC(=O)NC12Oc3c(C(C)C)cc(C(C)C)cc3C1(O)C(=O)c1ccccc12` (stereo not given): the melting point fell in the range of 217 to 219 °C.

In the case of `Cc1c([N+](=O)[O-])ccc(Cl)c1C#N`, the melting point lay in the range of 87.5 to 89.5 °C.

For the molecule `COc1ccc(-c2cnc3cc4cnn(CC(=O)O)c4cc3n2)cc1F`, the melting point is over 260 °C.

Consider `C[C@H]1NC(=O)[C@H]1N(NC(=O)OC(C)(C)C)C(=O)OC(C)(C)C`, for which the melting point fell in the range of 147 to 149 °C.

`CCOC(=O)c1[nH]c(CC)c(CC(C)C)c1C` had a melting point of 94 to 96 °C.

As to `COc1c(OCc2ccccc2)cnc(CO)c1C`, the melting point was 70 to 73 °C.

`N#Cc1ccc(NC2CCN(Cc3ccc(C(F)(F)F)cc3)CC2)nn1` registered a melting point of 243 °C.

`Cn1cncc1C(O)(c1ccc(Cl)cc1)c1ccc2nc(C=CC(N)=O)cc(-c3cccc(Cl)c3)c2c1` (stereo not given): the melting point turned out to be 80 °C.

For `CC1(C)CC(=NO)CC(=NO)C1C#N` (stereo not given), the melting point lay within 139 to 140 °C.
